Earlier results, collected in patent US20250213563A1, “SUBSTITUTED PYRIMIDIN-4(3H)-ONES FOR USE IN TREATING CANCER” (NAVIRE PHARMA, INC., priority 2021, published 2025).
“Also recorded” adds a separate entry of the source.

What was measured:
[1] = cited from earlier work
DUSP6 mRNA in tumors = details: at ≥20 mg daily; cited from earlier work
pERK in tumors = details: at ≥20 mg daily; cited from earlier work

Structure (SMILES)	Human DLTs ([1]; comparator SHP2 inhibitors)	Human Half life ([1]; comparator SHP2 inhibitors)	Human PD: DUSP6 mRNA inhibition in tumors (DUSP6 mRNA in tumors)	most common AEs ([1]; Human DLTs)	patients in whom AEs lead to dose interruption ([1]; Human DLTs)	Human PD: pERK inhibition in half of tumors analyzed (pERK in tumors)
C[C@@H]1OCC2(CCN(c3cnc(Sc4ccnc(N)c4Cl)c(N)n3)CC2)[C@@H]1N [TNO-155]	LVEF decrease, liver; also recorded: enzyme elevation,; also recorded: diarrhea	35 h	>50% DUSP6 mRNA	–	–	–
Cc1nc(N2CCC3(CC2)CO[C@@H](C)[C@H]3N)c(CO)nc1Sc1ccnc(N)c1Cl [RMC-4630]	–	28 to 33 h	–	patients; diarrhea,; also recorded: thrombocytopenia,; also recorded: edema are most	interruption in 50%	>30% pERKinhibition
